Reference: ChEMBL document CHEMBL3507680, “University of Dundee, Gates Library screen for HepG2 cell viability”

Assay: Human HepG2 cell viability assay in 384 well format
Format: toxicity, cell-based
Set-up: dose 125 nL, time 70.5 hour; cytotoxicity at 70.5 h: concentration not given beside the values
Conditions: HepG2 cells, read-out: Inhibition

Row | SMILES | cytotoxicity at 70.5 h
1 | NC(=O)Cn1ccc(O)c(Cc2ccc(Cl)cc2Cl)c1=O | 3.22%
2 | O=c1[nH]cnc2[nH]c(N3CCCCC3)nc12 | -5.16%
3 | O=C(NCC(F)(F)C(F)F)c1ccncc1 | -8.69%
4 | Cc1cc(C(=O)NCc2cccn2C)nn1C | 15.6%
5 | COc1ccnc(NCc2ccccc2Cn2cccn2)n1 | -1.62%
6 | COc1ccc(-c2cc(N)on2)cc1OC | -2.02%
7 | Cn1c(=O)c2cc(C(=O)NCCc3ccccc3)ccc2n(C)c1=O | -1.15%
8 | CC(C)CCC(=O)N1CCN(C(=O)c2ccc(-n3cccn3)cc2)CC1 | -3.97%
9 | Cc1nc2c(Nc3cccc(C#N)c3)nc(N)nc2n1C | 4%
10 | O=C1CN(c2ccc(CNC(=O)Nc3nnc(C4CC4)s3)cc2)CCN1 | 21.5%
11 | CC(Cc1ccco1)NC(=O)Nc1ccc(S(C)(=O)=O)nc1 (stereo unspecified) | -2.2%
12 | Cn1c(=O)oc2cc(S(=O)(=O)N3CCC(c4ccccc4)C3)c(Cl)cc21 (stereo unspecified) | 25%
13 | Cc1cc(N2CCC(O)CC2)nc(C)n1 | 1.14%
14 | Cc1c(C(=O)O)sc2nc(C(F)(F)F)ccc12 | -18.5%
15 | CCC(NC(=O)CN(C)Cc1ccc(C)o1)c1ccc(Br)cc1 (stereo unspecified) | -1.78%
16 | Cc1cc2cc(Nc3c(C#N)c(=O)n(C)c(=O)n3C)ccc2[nH]1 | -5.45%
17 | Cc1ccccc1CN(CCN(C)C)C(=O)c1ccc2nccn2c1 | 0.498%
18 | O=C(c1coc(COc2ccccc2F)n1)N1CCC[C@H]1CO | -2.42%
19 | CCc1ncc(C(=O)N(C)CC2Cc3ccccc3O2)cn1 (stereo unspecified) | 25.4%
20 | CC(C)c1cc(C(=O)N2CCN(c3ccncc3)CC2)n(C)n1 | -11.9%
21 | CC(C)n1cnnc1CN(C)CC1CCCNC1 (stereo unspecified) | -5.56%
22 | CN1C(=O)[C@H]2CC[C@@H]1CN(C(=O)c1sccc1S(N)(=O)=O)C2 | -4.92%
23 | CC(C)CCC(=O)N1CCC(c2nnc(CN(C)CCO)n2C)CC1 | -2.45%

Row | SMILES | cytotoxicity at 70.5 h
24 | Cc1c(NC(=O)NC2CN3CCC2CC3)cccc1C(=O)N1CCCC1 (stereo unspecified) | 37.5%
25 | CCOc1ccccc1OCCN(C)Cc1ncnn1CC | -6.09%
26 | Cc1cc(N2CCCC(O)(CN(C)C)CC2)nc(-c2ccccc2)n1 (stereo unspecified) | -4.65%
27 | CCc1cc(CN2C[C@H]3CC[C@@H]2CN(C2Cc4ccccc4C2)C3)on1 | -2.96%
28 | O=C(NCc1cc2n(n1)CCCNC2)c1cn2cc(Cl)ccc2n1 | -2.1%
29 | CSCCCN1CCn2nc(CNC(=O)N(C)C)cc2C1 | 0.863%
30 | CCOCCn1c(=O)[nH]c2cc(C(=O)N(C)Cc3ccno3)ccc21 | -1.24%
31 | O=C(O)[C@@H]1CN(C(=O)CC2CCCC2)C[C@H]1c1ccc(F)cc1 | -6.35%
32 | O=C(c1ccc2ccccc2c1)C1CCCN(C(=O)Cn2cncn2)C1 (stereo unspecified) | -1.71%
33 | O=C(c1cccnc1)N1CCC(Oc2cccc(C(F)(F)F)c2)CC1 | -4.72%
34 | NCc1n[nH]c(=O)n1-c1cccc(Cl)c1Cl | -3.71%
35 | CCC(CO)N(Cc1cccnc1)C(=O)c1ccc(C(F)(F)F)nc1O (stereo unspecified) | -18.7%
36 | CCCn1cc(-c2cc(-c3ccoc3)c(C#N)c(N)n2)c(C)n1 | 5.86%
37 | CN1[C@H]2CC[C@@H]1CN(C(=O)c1nnc3n1CCCCC3)CC2 | -9.52%
38 | CCCc1nc(C)c(CNc2nc(C)nc3onc(C)c23)s1 | 2.81%
39 | CNc1nc(C)c(C(=O)N2CCC(C(O)Cc3ccccc3)CC2)s1 (stereo unspecified) | -11.8%
40 | CCN1CCc2[nH]cnc2C12CCN(C(=O)CCCn1cncn1)CC2 | -1.47%
41 | CSc1ccccc1C(=O)N(C)Cc1nncn1C(C)C | -0.541%
42 | CC(=O)c1ccccc1-c1nc(CC2CCN(C)CC2)no1 | 16.1%
43 | COc1ccc(CN2CCCC(Nc3cccc(F)c3)C2)cc1O (stereo unspecified) | -2.89%
44 | O[C@H]1[C@H](n2cc(-c3cccnc3)nn2)c2ccccc2C12CCNCC2 | 0.63%
45 | Cc1cc(CN2CCC(CNC(=O)c3ccc(O)c(Cl)c3)C2)[nH]n1 (stereo unspecified) | -4.96%
46 | CC(=O)N1CCc2c(nc(-c3ccccn3)nc2N(C)CC(O)CO)C1 (stereo unspecified) | -9.73%

Row | SMILES | cytotoxicity at 70.5 h
47 | COc1ccccc1CN1C(=O)O[C@@H]2CN(c3nccs3)C[C@@H]21 | 1.12%
48 | CCn1cc(CN(C)C(=O)c2cccc(CCC(C)(C)O)c2)cn1 | -3.4%
49 | CCc1cc(NC2CCN(S(C)(=O)=O)CC2)n2nc(C)c(C)c2n1 | -1.04%
50 | CN1C(=O)C(c2ccccc2)CC12CCN(CCOCCO)CC2 (stereo unspecified) | 3.55%
51 | COc1cccc(-c2noc(-c3ccc(NCC4CC4)nc3)n2)c1OC | -2.04%
52 | CN(C)C(=O)c1ccc2c(c1)N(C)C(CC(=O)NCc1ccno1)CO2 (stereo unspecified) | -4.48%
53 | CC(=O)N1CCc2c(nc(-c3ccncc3)nc2N(C)CC(O)CO)C1 (stereo unspecified) | -9.59%
54 | CN(C)c1ccccc1C(=O)N1C[C@@H](CN2CCOCC2)[C@@H](CO)C1 | -3.02%
55 | O=C(Cc1cccnc1)N1CCC(OCc2ccccc2)CC1 | -11.4%
56 | Cc1ccc(CN2CCN(CC3CC3)[C@@H]3CS(=O)(=O)C[C@@H]32)cc1C | -6.12%
57 | Cn1cc(CCC(=O)N2C[C@H]3CC[C@@H]2CN(Cc2ccccc2)C3)cn1 | -5.6%
58 | Cc1cc(CC(=O)N2CCN(CC3CC3)[C@@H]3CS(=O)(=O)C[C@@H]32)ccc1F | 4.69%
59 | Cc1ccc(C(=O)N2Cc3ccccc3C2)cc1N1CCNC1=O | -6.89%
60 | O=c1cc(CN2CCCC(CCc3c(F)cccc3F)C2)[nH]c(=O)[nH]1 (stereo unspecified) | -8.15%
61 | O=C1[C@H]2CC[C@H](CN(Cc3ccccc3OC(F)F)C2)N1CC1CC1 | -7.82%
62 | COc1cccc(CCC2CCCN(C(=O)C3=NN(C)C(=O)CC3)C2)c1 (stereo unspecified) | -5.36%
63 | CN(C)c1ccc(CCNC(=O)C2CCC(=O)N(C3CCCC3)C2)cc1 (stereo unspecified) | -8%
64 | O=C(c1ccc[nH]1)N1CCC2(CC1)C(=O)Nc1ccccc12 | -14.9%
65 | COc1cccc(CC2CN(C3CCN(C(C)=O)CC3)CCO2)c1 (stereo unspecified) | -5.79%
66 | CCCc1n[nH]cc1C(=O)N1CCC(c2nccn2CCOC)CC1 | 19%
67 | CCS(=O)(=O)N1CCC(c2nnc(CN3CCOCC3)n2C)CC1 | -2.17%
68 | Cc1nccnc1CN1CCC2(CCCN(C3CCOCC3)C2=O)C1 (stereo unspecified) | -2.69%
69 | CN(C)CCN(C)C(=O)c1cnc2c(c1)nc(-c1ccccc1Cl)n2C | -5.91%

Row | SMILES | cytotoxicity at 70.5 h
70 | Cc1cc(=O)[nH]c(CCNC(=O)C(c2ccc(F)cc2)N(C)C)n1 (stereo unspecified) | 4.61%
71 | CCCc1cc(C(=O)N2CCCC2c2cccnc2)[nH]n1 (stereo unspecified) | -5.97%
72 | CN1C(=O)CC(C(=O)O)C12CCN(Cc1ccc(F)cc1Cl)CC2 (stereo unspecified) | -9.57%
73 | CCc1nnc(CN(C)c2nc(C(C)C)nc3c2cnn3C)o1 | -5.57%
74 | O=C(NCc1cc(O)ncn1)C1CCOc2ccccc2C1 (stereo unspecified) | -7.76%
75 | Cn1c(Cn2ccnc2)nnc1C1CCCN(C2CCCCC2)C1 (stereo unspecified) | -9.84%
76 | CCn1c(N)nc2cc(C(=O)NCCc3sccc3C)cnc21 | -4.44%
77 | COCc1cc(NCCc2ccc(F)cc2)n2nccc2n1 | -0.706%
78 | CCC1c2cccn2CCN1C(=O)c1ccc2nonc2c1 (stereo unspecified) | -2.25%
79 | COC[C@@]12CC[C@@H](N3CCOCC3)C[C@H]1CCN(c1ncccn1)C2 | -10.2%
80 | CC(=O)NCC1CCN(CC2CCOc3ccccc3C2)CC1 (stereo unspecified) | -4.25%
81 | Cc1nc(CN2CCCC(CCNS(C)(=O)=O)C2)c[nH]1 (stereo unspecified) | -11.3%
82 | CC(=O)c1cc(CC(=O)NCc2c(F)cccc2F)cs1 | -7.61%
83 | CCc1cc(N2CCCNCC2)n2nc(C)c(C)c2n1 | -5.51%
84 | Cc1ncccc1OC1(C(=O)NCCNc2ccccc2)CCNCC1 | -5.68%
85 | CC(C)n1ccnc1C1CCN(C(=O)c2cc[nH]n2)CC1 | -10.9%
86 | Cc1cc(CN2CCOCS2(=O)=O)ccc1F | -7.79%
87 | CCOc1ccc2[nH]c(=O)c(CN3CCC(O)CC3)cc2c1 | -7.88%
88 | CC(C)(C)N1CC(C(=O)N2CCN(CCc3ccccc3)CC2)CC1=O (stereo unspecified) | -12.8%
89 | CC(C)=CCN1CCC(c2nccn2Cc2cscn2)CC1 | -2.36%
90 | CNC(=O)CC1CCN(Cc2nc(-c3cccc(Cl)c3)oc2C)CC1 | -7.93%
91 | CSCCC1c2nc[nH]c2CCN1Cc1ccnc2ccccc12 (stereo unspecified) | -12.3%
92 | CCc1nc(N)sc1C(=O)N1CCCC(CCc2ccccc2C)C1 (stereo unspecified) | -6.29%

Row | SMILES | cytotoxicity at 70.5 h
93 | CC(C)C1CN(c2ncc(F)cn2)CCC(=O)N1Cc1ccc(F)cc1 (stereo unspecified) | -6.84%
94 | CCn1nc(C(C)C)cc1C(=O)NCCCOC | -4.05%
95 | CN(C)S(=O)(=O)N1C[C@@H]2CC[C@H](C1)N(Cc1ccc3nsnc3c1)C2 | 5.66%
96 | O=C(CCc1c[nH]cn1)N1CC[C@@H](c2ccc3ccccc3c2)[C@H](O)C1 | -8.55%
97 | Cc1cc(C(=O)N2C[C@@H](C(=O)O)[C@H](c3ccccc3C)C2)c(C)o1 | 13.2%
98 | CS(=O)(=O)NCc1cc2n(n1)CCCN(Cc1nc3ccccc3[nH]1)C2 | -8.44%
99 | COc1ccccc1OC1(C(=O)O)CCN(c2nccnc2C)CC1 | -5.26%
100 | Cc1cc(CN2CCC(CNC(=O)c3nccc4ccccc34)C2)[nH]n1 (stereo unspecified) | 9.66%
101 | CCCC1(CO)CCCN(c2ncccc2F)C1 (stereo unspecified) | -7.06%
102 | Cn1ncc2c(NCCOc3ccc(F)cc3)nc(C3CCCC3)nc21 | 0.952%
103 | CCCN1CCCn2nc(CNS(=O)(=O)c3cccc(C#N)c3)cc2C1 | -12.6%
104 | O=C1N(Cc2ccccc2F)CCCC12CCN(C1CCSCC1)C2 (stereo unspecified) | -4.98%
105 | Cc1nsc(NC(=O)N2CCC(C(C)(C)O)CC2)n1 | -5.05%
106 | COc1ncc(-c2nccn2CCN(C)C)cn1 | 9.94%
107 | N#Cc1ccc(C(=O)N2CCC3(CC2)C(=O)Nc2ccccc23)cn1 | -11.7%
108 | CC(=O)NC(C)CC(=O)NCc1cccnc1Oc1ccccc1C (stereo unspecified) | -6.45%
109 | CCc1cc2cc(OC)c(OC)cc2nc1SCCN1CCCCC1 | 1.15%
110 | COc1ccc(CC(=O)N2CCC[C@@H](N)[C@@H]2c2ccccc2F)cc1 | -0.222%
111 | CN1CCN(C2CCN(C(=O)CCC3CCCC3)CC2)CC1 | -6.88%
